For data set [1] the following is noted: versus prior oxotremorine compounds; U.S. Pat. No. 3,925,411; cited from earlier work.
The next data set concerns HCl-induced writhing. Briefly: HCl writhing protection (analgesic activity). It is filed as in vivo, CF1 mice. The following applies: Mus musculus, sc, read-out: CNS Id (ED50 mg/kg) HCl Writh. Protect. The method, then: For determination of analgesic activity, the test compound was injected subcutaneously into a group of four CF1 mice. Thirty minutes later the mice were injected i.p. with 0.15% HCl, 10 ml./kg. Mice were then placed in plastic boxes and observed for fifteen minutes to record the number of animals failing to writhe.

Data set [2] deals with CNS cholinergic receptor. The following applies: tritiated quinuclidine benzylate (QNB); read-out: CNS Cholinergic Receptor Binding Assays K1 QNB.
Data set [3] concerns the target CNS cholinergic receptor. Briefly: CNS cholinergic receptor binding, oxotremorine M ligand. The following applies: tritiated oxotremorine M; read-out: CNS Cholinergic Receptor Binding Assays K1 Oxotremorine.
The subject of data set [4] is oxotremorine-induced body tremor. Briefly: Oxotremorine antagonist assay (body tremor). It is filed as in vivo, mice. Conditions: Mus musculus, ip; read-out: Oxot. Antagonist Tremor (ED50). The method, then: Oxotremorine antagonist assays were performed on groups of six mice weighing 18-22 g. Each was dosed intraperitoneally with the test compound prepared in 0.25% methylcellulose and were placed in individual cages. Twenty minutes later the mice were injected subcutaneously with 0.5 mg/kg of oxotremorine dissolved in saline. Ten minutes later the mice were scored for body tremor. Doses of the compound under study began at 100 mg/kg and were decreased at a 0.5 log interval until no responders were obtained.

Data set [5] deals with amnesia produced by scopolamine. Nature of the data set: Antagonism of scopolamine-induced amnesia, passive avoidance. Type of data set: in vivo. The following applies: i.p. test compound, 1 mg/kg s.c. scopolamine hydrobromide, mouse step through passive avoidance. An excerpt:
For antagonism of amnesia produced by scopolamine a one trial, step through passive avoidance paradigm was used. In this procedure a mouse was placed on a square platform adjoining a darkened chamber. The mouse could enter the chamber through a hole above the platform. Following placement on the platform, the mouse was enclosed by a clear plexiglas cover which mildly restricted movement, limiting the animal to turning around and partial rearing. A sliding door was opened after this, exposing the entrance to the chamber. A timer was started at the same time the door was opened, in order to record latency to enter the chamber. Upon complete entry into the darkened box, the door was closed behind the mouse and a 1 mA, 2 sec, direct current shock applied to the feet of the mouse through the grid floor. The mouse was immediately removed from the chamber and returned to a 24 hr group holding cage.
Drug testing involved intraperitoneal injection of the test compound followed 15 min later by subcutaneous injection of 1 mg/kg scopolamine hydrobromide. […] The latency for each mouse to enter the chamber was recorded, with a cut-off at 180 sec.
Median group latencies to enter the chamber during both training and testing were recorded and a Wilcoxon rank sum test applied to data comparing the parallel "scopolamine only" group with all drug combination groups on testing. […]

For a further data set, the system named is cholinergic mechanism. The following applies: extremely low doses; cited from earlier work.
The mark [6] stands for this setting: ED50, s.c. in CF1 mice, 30 min before i.p. 0.15% HCl.

The values that follow come from US5137905A, “Heterocyclic acetylenic amines having central nervous system activity” (The Upjohn Company, priority 1991, dated 1992).

Structures are written as SMILES. Read-outs that look alike come from different tables or passages of the source.

For the compound `O=C1CCCN1CCC#CCN1CCCC1` [N-(5-pyrrolidino-3-pentynyl)-pyrrolidin-2-one], in data set [1], the half life entry is given as “increased half life over prior oxotremorine compounds”.

For the compound `Cn1ccn(CC#CCN2CCCC2)c1=O` [Compound 36, 1,3-Dihydro-1-methyl-3-[4-(1-pyrrolidinyl)-2-butynyl]-2H-imidazol-2-one], the values for the ED50 (in the data set with HCl-induced writhing (setting [6]); in data set [4]) were 1.3 mg/kg and > 10 mg/kg, respectively. The Ki on CNS cholinergic receptor [2] was 510 nM; on CNS cholinergic receptor [3], 7 nM. Besides, the “antagonism of amnesia produced by scopolamine” value in data set [5] is given as “the most active”.

With `O=C1CCCN1CC#CCN1CCCC1` [oxotremorine, 1-[4-(1-pyrrolidinyl-2-butynyl)-2-pyrrolidinone]], in the data set with cholinergic mechanism, the “tremors and spasticity in laboratory animals” value is “induces tremors and spasticity in laboratory animals”.

Regarding `NC(=O)N1CCC[C@@H]1C#CCN1CCCC1` [Compound 51H, (R)-2-[3-(1-pyrrolidinyl)-1-propynyl]-1-pyrrolidinecarboxamide], the ED50 with HCl-induced writhing (setting [6]) is > 50 mg/kg; in data set [4], > 100 mg/kg. The results for the Ki on CNS cholinergic receptor [2] and at CNS cholinergic receptor [3] were > 10000 nM and 440 nM, respectively.

Turning to `CN(C)C(=O)N1CCC[C@@H]1C#CCN1CCCC1` [Compound 51E, (R)-N,N-Dimethyl 2-[3-(1-pyrrolidinyl)-1-propynyl]-1-pyrrolidinecarboxamide], the values for the ED50 (in the data set on HCl-induced writhing (setting [6]); in data set [4]) were > 50 mg/kg and 25 mg/kg, respectively. The results for the Ki on CNS cholinergic receptor [2] and on CNS cholinergic receptor [3] were 43 nM and 12 nM, respectively.

With `O=C1N(CC#CCN2CCCC2)CCN1c1ccccc1` [Compound 20, 1-Phenyl-3-[4-(1-pyrrolidinyl)-2-butynyl]-2-imidazolidinone], the figures for the ED50 (with HCl-induced writhing (setting [6]); in data set [4]) were > 25 mg/kg and > 30 mg/kg, respectively. For the same compound, the Ki is 170 nM at CNS cholinergic receptor [2] and 69 nM at CNS cholinergic receptor [3].

For `CC(C)(C)OC(=O)N1CCC[C@H]1C#CCN1CCCC1` [Compound 49B, (S)-t-Butyl 2-[3-(1-pyrrolidinyl)-1-propynyl]-1-pyrrolidinecarboxylate], the ED50 in the data set on HCl-induced writhing (setting [6]) is > 50 mg/kg; in data set [4] it was > 100 mg/kg. The figures for the Ki on CNS cholinergic receptor [2] and on CNS cholinergic receptor [3] were > 10000 nM and 3500 nM, respectively.

For the compound `CC1CN(C)C(=O)N1CC#CCN1CCCC1` (stereo not drawn) [Compound 19, 1,4Dimethyl-3-[4-(1-pyrrolidinyl)-2-butynyl]-2-imidazolidinone], the ED50 is > 13 mg/kg with HCl-induced writhing (setting [6]) and 6.6 mg/kg in data set [4]. Besides, the Ki stood at 20 nM at CNS cholinergic receptor [2] and 4 nM on CNS cholinergic receptor [3].

In the case of `COC(=O)N1CCC[C@H]1C#CCN1CCCC1` [Compound 51K, (S)-Methyl 2-[3-(1-pyrrolidinyl)-1-propynyl]-1-pyrrolidinecarboxylate], the ED50 is > 50 mg/kg in the data set on HCl-induced writhing (setting [6]) and 97 mg/kg in data set [4]. The Ki amounted to 220 nM at CNS cholinergic receptor [2] and 130 nM on CNS cholinergic receptor [3].

`CN(C)CC#C[C@H]1CCCN1` [Compound 50C, (R)-N,N-dimethyl-3-(2-pyrrolidinyl)-2-propyn-1-amine]: the ED50 in the data set with HCl-induced writhing is > 50 mg/kg; in data set [4], > 100 mg/kg. The Ki on CNS cholinergic receptor [2] was > 1000 nM; at CNS cholinergic receptor [3] it was 970 nM.

On to `CN(C)CC#CCN1CCN(C)C1=O` [Compound 10, 1-[4-(1-Dimethylamino)-2-butynyl]-3-methyl-2-imidazolidinone], for which the values for the ED50 (in the data set with HCl-induced writhing (setting [6]); in data set [4]) were > 13 mg/kg and > 10 mg/kg, respectively. Further, the Ki on CNS cholinergic receptor [2] was 180 nM; on CNS cholinergic receptor [3], 4.5 nM.
